Assays:
[1] = system: KBalb cells; test: Apoptotic (hypodiploid) fraction by propidium iodide flow cytometry, KBalb; type: cell-based, mouse; conditions: 60 h
Experimental: (§1) FIGS. 4A-4D show activation of apoptosis by individual p21^Ras-effector pathways. […] Cells were fixed and stained with propidium iodide, and the apoptotic (hypodiploid) fractions were evaluated by PI staining and flow cytometric analysis using the FL2-H channel. Cells transfected with the empty pSG5 vector served as negative controls. […] NIH/3T3 cells were pre-treated for 30 minutes with Ly294002 (10 μM) before rottlerin (20 μM) was added. The apoptotic (hypodiploid) fractions were evaluated 60 h later. […] The apoptotic (hypodiploid) fractions were evaluated 60 h later. Cells were fixed and stained with propidium iodide. DNA fragmentation was analyzed by flow cytometry using the FL2-H channel.
Cell Culture and Treatment. NIH/3T3 and Balb cell lines were obtained from ATCC (American Type Culture Collection, Rockville, Md.). […] Cell proliferation was assessed using an MTT [3-(4,5-dimethylthiazol-2-yl)-2,5-diphenyltetrazolium bromide] assay (Roche, Mannheim, Germany). […] The optical densities were quantified at a test wavelength of 550 nm and a reference wavelength of 630 nm on a multiwell spectrophotometer. siRNA Knockdown of PKCδ. siRNA duplexes (siRNAs) were obtained from Qiagen (Valencia, Calif.). […] PKCδ protein levels were determined by immunoblot analysis. […] PKCδ activity was measured with an assay kit (Upstate Cell Signaling). […]

[2] = system: NIH/3T3 cells; test: Apoptotic (hypodiploid) fraction by propidium iodide flow cytometry, NIH/3T3 cells expressing Ras effectors or effector mutants; type: cell-based, mouse
Experimental: as §1
Cell Culture and Treatment. NIH/3T3 and Balb cell lines were obtained from ATCC (American Type Culture Collection, Rockville, Md.). NIH/3T3-Ras cells were produced by stable transfection of v-Harvey ras, and selected and maintained in 0.5 mg/ml of Geneticin (Gibco BRL, Gaithersburg, Md.). Ki-v-ras-Balb (KBalb) cells were produced by stable infection of Balb with retroviral vector stocks containing v-Kirsten ras, and were selected and maintained with Geneticin. The human pancreatic tumor lines Hs 766s, BxPC-3 and MIA PaCa-2, were obtained from ATCC. All cell lines were maintained in Dulbecco Modified Eagle medium (DMEM) (Gibco BRL) supplemented with 2 mM 1-glutamine, 100 U/ml of penicillin, and 100 μg/ml of streptomycin (Gibco BRL). Media was additionally supplemented with 10% DCS (NIH/3T3, NIH/3T3-Ha-v-Ras, Balb/3T3, Ki-v-ras-Balb, and Balb-myc), or 10% FBS (BxPC-3, MIA PaCa-2). Cells were cultured at 37° C. and 5% CO2. Cell Proliferation Assay. Cell proliferation was assessed using an MTT [3-(4,5-dimethylthiazol-2-yl)-2,5-diphenyltetrazolium bromide] assay (Roche, Mannheim, Germany). […] The optical densities were quantified at a test wavelength of 550 nm and a reference wavelength of 630 nm on a multiwell spectrophotometer. siRNA Knockdown of PKCδ. siRNA duplexes (siRNAs) were obtained from Qiagen (Valencia, Calif.). […] PKCδ protein levels were determined by immunoblot analysis. […] PKCδ activity was measured with an assay kit (Upstate Cell Signaling). […] Immunocomplexes were washed three times with the kinase buffer (20 mM Tris-HCl, 10 mM MgCl2, pH 7.5) and then incubated with a PKC-specific peptide substrate, [γ-^33P]ATP, and inhibitors of cAMP-dependent kinase and calmodulin kinase for 10 min at 30° C. ^33P incorporated into the substrate was separated from residual ^33P using p81 filters and subsequently quantified by scintillation counting. β-actin antibody was used as negative control in immunoprecipitations. p21^Ras Activity Assays. […]

[3] = system: MIA PaCa-2 cells; test: MTT cell proliferation assay, MIA PaCa-2; type: cell-based, human; conditions: MIA PaCa-2 (mutated p21Ras), 48 h, inhibitor concentration as in Table 3
Experimental: (§2) FIGS. 1A-1C show effects of different PKC isoform inhibitors on proliferation of mouse fibroblast cells and human pancreatic cells. Cells were grown to 80% confluence in 96-well plates, then treated with the inhibitors at the concentrations indicated in Table I. The corresponding solvents with equivalent volume were used as vehicle controls. After 48 h treatment, cell proliferation was evaluated by MTT assay. Results are presented as the means ±SD. Statistical significance was determined using a paired Student's t-test, and p-values ≦0.05 were considered significant. […] Nuclear-free lysates containing a total of 400 μg protein from each indicated cell type were used for analysis of Ras activity by Raf-RBD pull down.
(§3) All inhibitors were dissolved in dimethyl sulfoxide for use, and their effects were measured relative to dimethyl sulfoxide (vehicle)-treated controls.
(§4) Cell Culture and Treatment. NIH/3T3 and Balb cell lines were obtained from ATCC (American Type Culture Collection, Rockville, Md.). NIH/3T3-Ras cells were produced by stable transfection of v-Harvey ras, and selected and maintained in 0.5 mg/ml of Geneticin (Gibco BRL, Gaithersburg, Md.). Ki-v-ras-Balb (KBalb) cells were produced by stable infection of Balb with retroviral vector stocks containing v-Kirsten ras, and were selected and maintained with Geneticin. The human pancreatic tumor lines Hs 766s, BxPC-3 and MIA PaCa-2, were obtained from ATCC. All cell lines were maintained in Dulbecco Modified Eagle medium (DMEM) (Gibco BRL) supplemented with 2 mM 1-glutamine, 100 U/ml of penicillin, and 100 μg/ml of streptomycin (Gibco BRL). […] Cell proliferation was assessed using an MTT [3-(4,5-dimethylthiazol-2-yl)-2,5-diphenyltetrazolium bromide] assay (Roche, Mannheim, Germany). […] The optical densities were quantified at a test wavelength of 550 nm and a reference wavelength of 630 nm on a multiwell spectrophotometer. siRNA Knockdown of PKCδ. siRNA duplexes (siRNAs) were obtained from Qiagen (Valencia, Calif.). […]

[4] = system: KBalb cells; test: MTT cell proliferation assay, KBalb; type: cell-based, mouse; conditions: KBalb (mutated p21Ras), 48 h, inhibitor concentration as in Table 3
Experimental: as §2, §3, §4

[5] = system: Hs766T cells; test: MTT cell proliferation assay, Hs766T; type: cell-based, human; conditions: Hs766T (wild-type p21Ras), 48 h, 20 μM
Experimental: as §2, §3
(§5) Cell Culture and Treatment. NIH/3T3 and Balb cell lines were obtained from ATCC (American Type Culture Collection, Rockville, Md.). […] Cell proliferation was assessed using an MTT [3-(4,5-dimethylthiazol-2-yl)-2,5-diphenyltetrazolium bromide] assay (Roche, Mannheim, Germany). […] The optical densities were quantified at a test wavelength of 550 nm and a reference wavelength of 630 nm on a multiwell spectrophotometer. siRNA Knockdown of PKCδ. siRNA duplexes (siRNAs) were obtained from Qiagen (Valencia, Calif.). […]

[6] = system: PKCδ; type: cell-based
Experimental: (§6) Cell Culture and Treatment. NIH/3T3 and Balb cell lines were obtained from ATCC (American Type Culture Collection, Rockville, Md.). NIH/3T3-Ras cells were produced by stable transfection of v-Harvey ras, and selected and maintained in 0.5 mg/ml of Geneticin (Gibco BRL, Gaithersburg, Md.). Ki-v-ras-Balb (KBalb) cells were produced by stable infection of Balb with retroviral vector stocks containing v-Kirsten ras, and were selected and maintained with Geneticin. The human pancreatic tumor lines Hs 766s, BxPC-3 and MIA PaCa-2, were obtained from ATCC. All cell lines were maintained in Dulbecco Modified Eagle medium (DMEM) (Gibco BRL) supplemented with 2 mM 1-glutamine, 100 U/ml of penicillin, and 100 μg/ml of streptomycin (Gibco BRL). Media was additionally supplemented with 10% DCS (NIH/3T3, NIH/3T3-Ha-v-Ras, Balb/3T3, Ki-v-ras-Balb, and Balb-myc), or 10% FBS (BxPC-3, MIA PaCa-2). Cells were cultured at 37° C. and 5% CO2. Cell Proliferation Assay. Cell proliferation was assessed using an MTT [3-(4,5-dimethylthiazol-2-yl)-2,5-diphenyltetrazolium bromide] assay (Roche, Mannheim, Germany). […] The optical densities were quantified at a test wavelength of 550 nm and a reference wavelength of 630 nm on a multiwell spectrophotometer. siRNA Knockdown of PKCδ. siRNA duplexes (siRNAs) were obtained from Qiagen (Valencia, Calif.). […]

[7] = system: PKCδ; test: Immunoblot analysis of PKCδ protein levels; type: cell-based; conditions: 20 μM, 48 h, all cell lines tested
Experimental: as §6

[8] = system: Balb cells; test: MTT cell proliferation assay, Balb; type: cell-based, mouse; conditions: Balb (wild-type p21Ras), 48 h, 20 μM
Experimental: as §2, §3, §5

With `O=c1cc(N2CCOCC2)oc2c(-c3ccccc3)cccc12` [LY294002] the “apoptosis induced by PKCδ inhibition blocked” value ([1]; KBalb cells, pre-treatment before rottlerin 20 μM) was 50% and the “decrease of apoptosis induced by rottlerin” value ([2]; NIH/3T3 p110-CAAX, 20 μM pre-treatment 30 min, then rottlerin 20 μM 60 hours) was about 50%.

For `CN(C)CCCn1cc(C2=C(c3c[nH]c4ccccc34)C(=O)NC2=O)c2ccccc21` [Bis-1, Bisindolylmaleimide I], the “cell proliferation (MTT)” value [3] was “strongly suppressed the growth” and the “cell proliferation (MTT)” value [4] was “strongly suppressed the growth”.

For `CCCCCCCCCCCCCCCCOCC(CO)OC` (stereo not shown) [HMG], the “cell proliferation (MTT)” value [3] was “strongly suppressed the growth” and the “cell proliferation (MTT)” value [4] was “strongly suppressed the growth”.

In the case of `COc1cccc(-c2cc(=O)c3ccccc3o2)c1N` [PD98095], the “suppression of p21Ras-dependent apoptosis” value ([1]; cells with activated p21Ras, 10 μM pre-treatment, rottlerin 20 μM, lesser degree than PI3K-inhibition) is reported as “suppressed p21^Ras-dependent apoptosis to some extent”.

For `CC(=O)c1c(O)c(C)c(O)c(Cc2c(O)c3c(c(C(=O)/C=C/c4ccccc4)c2O)OC(C)(C)C=C3)c1O` [rottlerin, Rottlerin], the “cell proliferation (MTT)” value [5] was “stimulated proliferation”, the “cell proliferation (MTT)” value [3] was “dramatically and specifically decreased the proliferation” and the “cell proliferation (MTT)” value [4] was “dramatically and specifically decreased the proliferation”. The PKCδ activity blocked [6] was “greater than 95%”, the “PKCδ protein levels after rottlerin” value [7] was “suppressed PKCδ levels somewhat” and the “apoptosis in cells expressing p21Ras effector mutants S35, G37, C40” value ([2]; 20 μM, 60 h, C40 greatest) was “stimulated apoptosis to some extent”. For the same molecule, the “apoptosis in cells expressing Raf or Ral-GEF effectors” value ([2]; NIH/3T3 Raf-22W, RIF-CAAX, rottlerin 20 μM, 60 h) was “induced little apoptosis”, the apoptotic frequency ([2]; NIH/3T3 with activated PI3K (p110-CAAX), rottlerin 20 μM, 60 h) was 38.22% and the “cell proliferation (MTT)” value [8] was “stimulated proliferation”.

— patent US20090220503A1, “METHOD FOR TREATING CANCERS WITH INCREASED RAS SIGNALING” (THE TRUSTEES OF BOSTON UNIVERSITY, priority 2006, published 2009)
